Data from publication PMC2248166, “Quantitative peptide binding motifs for 19 human and mouse MHC class I molecules derived using positional scanning combinatorial peptide libraries” (Immunome Research, 2008).
Where a SMILES comes first, the peptide text is derived from it.

Biological target: HLA B*0801 (Homo sapiens, UniProt P01889, A93T/A95T/D138N/E176V/E187T/K202T/Q94N/R180D/S35A/V36M/Y33D/Y91F)
Experiment: biochemical
Assay type: binding

SMILES | IC50 [nM]
CSCC[C@H](NC(=O)[C@H](Cc1ccccc1)NC(=O)[C@H](CCSC)NC(=O)[C@@H](N)CO)C(=O)N[C@@H](CO)C(=O)N[C@@H](CC(C)C)C(=O)N[C@@H](CC(C)C)C(=O)N1CCC[C@H]1C(=O)N[C@@H](C)C(=O)O [3102.0656] (H-SMFMSLLPA-OH) | 56
CC[C@H](C)[C@H](NC(=O)[C@H](C)N)C(=O)N[C@@H](CCCCN)C(=O)N[C@@H](CC(C)C)C(=O)NCC(=O)N[C@@H](Cc1ccccc1)C(=O)N[C@@H](CCCCN)C(=O)N[C@@H](CO)C(=O)N[C@@H](CC(C)C)C(=O)O [3102.0664] (H-AIKLGFKSL-OH) | 41
CC[C@H](C)[C@H](NC(=O)[C@H](CCCNC(=N)N)NC(=O)[C@H](Cc1ccc(O)cc1)NC(=O)[C@H](CCCCN)NC(=O)[C@H](CC(N)=O)NC(=O)[C@@H](N)CO)C(=O)N[C@@H](CCCCN)C(=O)N[C@@H](CO)C(=O)N[C@H](C(=O)O)C(C)C [3102.0666] (H-SNKYRIKSV-OH) | 2.7
CC(C)C[C@H](NC(=O)[C@@H](N)CC(=O)O)C(=O)N[C@@H](CCCNC(=N)N)C(=O)N[C@@H](CCCNC(=N)N)C(=O)N[C@@H](CCCNC(=N)N)C(=O)N[C@@H](Cc1ccccc1)C(=O)N[C@@H](CC(=O)O)C(=O)N[C@H](C(=O)N[C@@H](Cc1ccccc1)C(=O)O)[C@@H](C)O [3102.0667] (H-DLRRRFDTF-OH) | 1.6
CC[C@H](C)[C@H](NC(=O)[C@@H]1CCCN1C(=O)[C@H](CCCCN)NC(=O)[C@@H](NC(=O)[C@H](CCCNC(=N)N)NC(=O)[C@H](CC(N)=O)NC(=O)[C@H](CCCNC(=N)N)NC(=O)[C@H](CCSC)NC(=O)[C@@H](N)CCSC)[C@@H](C)O)C(=O)O [3102.0668] (H-MMRNRTKPI-OH) | 1.5
CSCC[C@H](NC(=O)[C@H](CC(C)C)NC(=O)[C@H](CCCNC(=N)N)NC(=O)[C@H](CCCCN)NC(=O)[C@H](CCSC)NC(=O)[C@H](CCSC)NC(=O)[C@@H](N)CCSC)C(=O)N[C@@H](Cc1ccccc1)C(=O)N[C@@H](CCC(=O)O)C(=O)O [3102.0672] (H-MMMKRLMFE-OH) | 75
CC(C)C[C@H](NC(=O)[C@@H](N)CC(C)C)C(=O)N[C@@H](CCCCN)C(=O)N[C@@H](Cc1ccccc1)C(=O)N[C@@H](CCCNC(=N)N)C(=O)N[C@H](C(=O)N[C@@H](CCC(=O)O)C(=O)N[C@@H](CO)C(=O)N[C@@H](CS)C(=O)O)C(C)C [3102.0675] (H-LLKFRVESC-OH) | 74
CC[C@H](C)[C@H](NC(=O)[C@H](CCCCN)NC(=O)[C@@H](NC(=O)[C@H](CCCCN)NC(=O)[C@@H](NC(=O)[C@@H](N)CC(=O)O)[C@@H](C)CC)[C@@H](C)O)C(=O)N[C@@H](CCSC)C(=O)N[C@H](C(=O)N[C@@H](CC(C)C)C(=O)O)C(C)C [3102.0683] (H-DIKTKIMVL-OH) | 73
CSCC[C@H](NC(=O)[C@H](CO)NC(=O)[C@H](Cc1c[nH]cn1)NC(=O)[C@H](CCCCN)NC(=O)[C@@H](NC(=O)[C@H](Cc1ccc(O)cc1)NC(=O)[C@H](CCSC)NC(=O)[C@@H](N)Cc1ccccc1)[C@@H](C)O)C(=O)N[C@@H](CC(C)C)C(=O)O [3102.0684] (H-FMYTKHSML-OH) | 0.2
CC[C@H](C)[C@H](NC(=O)[C@H](CCCCN)NC(=O)[C@H](CC(C)C)NC(=O)[C@@H](N)Cc1ccccc1)C(=O)N[C@@H](CCCCN)C(=O)N[C@H](C(=O)N[C@H](C(=O)N[C@@H](C)C(=O)N[C@@H](C)C(=O)O)[C@@H](C)O)C(C)C [3102.0685] (H-FLKIKVTAA-OH) | 15
CC(C)C[C@H](NC(=O)[C@@H](N)Cc1ccc(O)cc1)C(=O)N[C@@H](CCCNC(=N)N)C(=O)N[C@H](C(=O)N[C@@H](CCCCN)C(=O)N1CCC[C@H]1C(=O)N[C@@H](C)C(=O)N[C@@H](CO)C(=O)N[C@@H](C)C(=O)O)[C@@H](C)O [3102.0686] (H-YLRTKPASA-OH) | 1.5
CC[C@H](C)[C@H](NC(=O)[C@@H]1CCCN1C(=O)[C@H](CCCNC(=N)N)NC(=O)[C@H](Cc1c[nH]cn1)NC(=O)[C@H](CCCNC(=N)N)NC(=O)[C@H](CCCCN)NC(=O)[C@H](CC(N)=O)NC(=O)[C@@H](N)CO)C(=O)NCC(=O)O [3102.0687] (H-SNKRHRPIG-OH) | 34
CC[C@H](C)[C@H](NC(=O)[C@H](Cc1c[nH]cn1)NC(=O)[C@H](Cc1ccccc1)NC(=O)[C@H](CCCNC(=N)N)NC(=O)[C@@H](NC(=O)[C@@H](N)CO)[C@@H](C)CC)C(=O)N[C@@H](CCCCN)C(=O)N[C@@H](CCC(=O)O)C(=O)N[C@@H](CC(C)C)C(=O)O [3102.0695] (H-SIRFHIKEL-OH) | 0.45
CC(C)C[C@H](NC(=O)[C@H](CO)NC(=O)CNC(=O)[C@H](Cc1ccccc1)NC(=O)[C@@H](NC(=O)[C@H](CCC(N)=O)NC(=O)[C@H](CCCCN)NC(=O)[C@H](Cc1ccccc1)NC(=O)[C@@H](N)Cc1ccccc1)[C@@H](C)O)C(=O)O [3102.0697] (H-FFKQTFGSL-OH) | 0.74
CSCC[C@H](NC(=O)[C@H](CCC(N)=O)NC(=O)[C@H](CCCCN)NC(=O)[C@@H](NC(=O)[C@H](CCC(N)=O)NC(=O)[C@@H]1CCCN1C(=O)[C@@H](N)CC(N)=O)[C@@H](C)O)C(=O)N[C@@H](C)C(=O)N[C@@H](Cc1ccccc1)C(=O)O [3102.0698] (H-NPQTKQMAF-OH) | 14
CC[C@H](C)[C@H](NC(=O)[C@@H](NC(=O)[C@H](Cc1ccccc1)NC(=O)[C@H](CCCCN)NC(=O)[C@H](CCC(N)=O)NC(=O)[C@H](CCSC)NC(=O)[C@H](CC(=O)O)NC(=O)[C@@H](N)CO)[C@@H](C)O)C(=O)N[C@@H](CC(C)C)C(=O)O [3102.0699] (H-SDMQKFTIL-OH) | 41
CC(C)C[C@H](NC(=O)[C@@H](N)CC(N)=O)C(=O)N[C@@H](CCCNC(=N)N)C(=O)N[C@@H](CS)C(=O)N[C@@H](Cc1c[nH]cn1)C(=O)N[C@@H](CO)C(=O)N[C@@H](C)C(=O)N[C@@H](Cc1c[nH]cn1)C(=O)N[C@H](C(=O)O)C(C)C [3102.0700] (H-NLRCHSAHV-OH) | 1.2
CC[C@H](C)[C@H](NC(=O)[C@H](CC(C)C)NC(=O)[C@H](CCSC)NC(=O)[C@H](CCCNC(=N)N)NC(=O)[C@@H](NC(=O)[C@H](Cc1ccccc1)NC(=O)[C@@H](NC(=O)[C@@H](N)CO)[C@@H](C)CC)[C@@H](C)CC)C(=O)N[C@@H](CC(C)C)C(=O)O [3102.0701] (H-SIFIRMLIL-OH) | 10
CC[C@H](C)[C@H](NC(=O)[C@H](CC(C)C)NC(=O)[C@@H](N)CCSC)C(=O)N[C@@H](CC(C)C)C(=O)N[C@@H](CC(N)=O)C(=O)N[C@@H](Cc1ccccc1)C(=O)N[C@@H](CS)C(=O)N[C@@H](CCCCN)C(=O)N[C@@H](CC(C)C)C(=O)O [3102.0702] (H-MLILNFCKL-OH) | 3.9
CSCC[C@H](NC(=O)[C@@H]1CCCN1C(=O)[C@@H](N)CC(C)C)C(=O)N[C@@H](CC(C)C)C(=O)N[C@@H](Cc1ccc(O)cc1)C(=O)N[C@@H](Cc1ccccc1)C(=O)N[C@@H](CC(C)C)C(=O)N[C@@H](Cc1ccc(O)cc1)C(=O)N[C@H](C(=O)O)C(C)C [3102.0703] (H-LPMLYFLYV-OH) | 2.5
CC[C@H](C)[C@H](NC(=O)[C@@H](NC(=O)[C@H](CCC(N)=O)NC(=O)[C@H](CCCNC(=N)N)NC(=O)[C@H](CCCCN)NC(=O)[C@H](Cc1ccccc1)NC(=O)[C@H](CO)NC(=O)[C@@H]1CCCN1C(=O)[C@@H](N)CC(N)=O)[C@@H](C)CC)C(=O)O [3102.0704] (H-NPSFKRQII-OH) | 20
CC[C@H](C)[C@H](NC(=O)[C@H](CC(=O)O)NC(=O)[C@H](CC(C)C)NC(=O)[C@H](CCCCN)NC(=O)[C@H](CCCCN)NC(=O)[C@H](CCCNC(=N)N)NC(=O)[C@H](CCCCN)NC(=O)[C@@H](NC(=O)[C@@H](N)Cc1ccccc1)C(C)C)C(=O)O [3102.0707] (H-FVKRKKLDI-OH) | 3
CC[C@H](C)[C@H](NC(=O)[C@H](CCCNC(=N)N)NC(=O)[C@@H](N)Cc1ccc(O)cc1)C(=O)N[C@@H](C)C(=O)N[C@@H](CCCCN)C(=O)N[C@@H](Cc1ccccc1)C(=O)N[C@@H](CC(C)C)C(=O)N[C@@H](Cc1ccccc1)C(=O)N[C@@H](CCSC)C(=O)O [3102.0708] (H-YRIAKFLFM-OH) | 17
CC[C@H](C)[C@H](NC(=O)[C@H](CCCCN)NC(=O)[C@@H](NC(=O)[C@H](CCCNC(=N)N)NC(=O)[C@H](CC(C)C)NC(=O)[C@@H](N)C(C)C)[C@@H](C)O)C(=O)N[C@H](C(=O)N[C@@H](CO)C(=O)N[C@@H](CC(C)C)C(=O)O)[C@@H](C)O [3102.0709] (H-VLRTKITSL-OH) | 0.92
CC(C)C[C@H](NC(=O)[C@@H](NC(=O)[C@H](CCCNC(=N)N)NC(=O)[C@H](Cc1ccccc1)NC(=O)[C@H](CCCCN)NC(=O)[C@H](CO)NC(=O)[C@H](CC(C)C)NC(=O)[C@H](CCC(N)=O)NC(=O)[C@@H](N)CC(=O)O)[C@@H](C)O)C(=O)O [3102.0710] (H-DQLSKFRTL-OH) | 7.4
CC[C@H](C)[C@H](NC(=O)[C@H](CC(=O)O)NC(=O)[C@H](CC(C)C)NC(=O)[C@@H]1CCCN1C(=O)[C@H](CCCCN)NC(=O)[C@H](CC(C)C)NC(=O)[C@H](CCCNC(=N)N)NC(=O)[C@H](C)NC(=O)[C@@H](N)CC(N)=O)C(=O)O [3102.0711] (H-NARLKPLDI-OH) | 0.81
CC(C)C[C@H](NC(=O)[C@@H](N)CCC(=O)O)C(=O)N[C@@H](CCCCN)C(=O)N[C@@H](CCC(=O)O)C(=O)N[C@@H](CCCCN)C(=O)N[C@@H](CO)C(=O)N[C@H](C(=O)N[C@@H](CCCCN)C(=O)N[C@@H](Cc1ccccc1)C(=O)O)C(C)C [3102.0712] (H-ELKEKSVKF-OH) | 3.2
CC[C@H](C)[C@H](NC(=O)[C@H](CO)NC(=O)[C@H](CCSC)NC(=O)[C@H](CC(C)C)NC(=O)[C@H](CCCNC(=N)N)NC(=O)[C@H](CC(N)=O)NC(=O)[C@H](CO)NC(=O)[C@H](CC(N)=O)NC(=O)[C@@H](N)CO)C(=O)O [3102.0713] (H-SNSNRLMSI-OH) | 10
CSCC[C@H](NC(=O)[C@H](Cc1ccccc1)NC(=O)[C@@H](N)CC(C)C)C(=O)N[C@@H](CO)C(=O)N[C@@H](Cc1c[nH]cn1)C(=O)N[C@H](C(=O)N[C@@H](CCCCN)C(=O)N[C@@H](CO)C(=O)N[C@H](C(=O)O)C(C)C)C(C)C [3102.0716] (H-LFMSHVKSV-OH) | 3.1
CC[C@H](C)[C@H](NC(=O)[C@H](C)NC(=O)[C@H](CO)NC(=O)[C@H](Cc1ccccc1)NC(=O)[C@H](CCCCN)NC(=O)[C@H](CCCCN)NC(=O)[C@H](CO)NC(=O)[C@@H](NC(=O)[C@@H](N)CC(N)=O)[C@@H](C)CC)C(=O)O [3102.0717] (H-NISKKFSAI-OH) | 2.8
